Laboratory results as given in paper PMC7438500 (Nature Communications, 2020).
Entries after “also recorded” stand apart in the source; their conditions may differ.

Experiments:
[1] = test system: ghrelin receptor WT (hGHSR WT); experiment: Luciferase assay, basal (constitutive) activity in presence of Compound 21; format: cell-based, human; conditions: CHO cells, 10^-10 to 10^-6 M Compound 21, 1 h; n=5–6
Protocol: Transfections were performed using the FuGENE HD transfection reagent (Promega). The next day, the transfected cells were collected and plated into 96-well white microplates (Corning) at a density of 2.5 × 10^4 cells/well. After a 1-day incubation, the luciferase activities were determined using Dual-Luciferase Reporter Assay System (Promega). […] All firefly luciferase activities were normalized against Renilla luciferase activity. All experiments were performed in sextuplicate.

[2] = molecular target: ghrelin receptor crystallization construct (hGHSR29-346 (T130K/N188Q)); experiment: [3H]-Compound 21 saturation binding, crystallization construct; set-up: species or system human; conditions: Sf9 membranes, 3.125–50 nM radioligand, on ice 1 h, pH7.5; mean ± s.d.
Protocol: (§1) The homogenate was ultracentrifuged at 100,000×g for 30 min at 4 °C, and the pellet was washed twice with cold homogenization buffer. The protein concentration was determined using BCA Protein Assay (Thermo Fisher). […] Bound [^3H]-Compound 21 was quantified with an AccuFLEX LCS-8000 liquid scintillation counter (Hitachi) after addition of 2.5 ml of Clear-Sol liquid scintillation cocktail (Nacalai Tesque). Data were analyzed by nonlinear curve-fitting using the program GraphPad Prism 5. Binding data are reported as means ± s.d.

[3] = molecular target: T1, ghrelin receptor (Homo sapiens, UniProt Q92847); experiment: Crystal structure of bRIL-hGHSR-Fab 7881-Compound 21 complex; conditions: 3.3 Å resolution, PDB 6KO5
T1 construct: expressed in transfected cells; host or cells: HEK293 cells (membrane preparations, transient expression)
T1 sequence (Q92847 whole entry): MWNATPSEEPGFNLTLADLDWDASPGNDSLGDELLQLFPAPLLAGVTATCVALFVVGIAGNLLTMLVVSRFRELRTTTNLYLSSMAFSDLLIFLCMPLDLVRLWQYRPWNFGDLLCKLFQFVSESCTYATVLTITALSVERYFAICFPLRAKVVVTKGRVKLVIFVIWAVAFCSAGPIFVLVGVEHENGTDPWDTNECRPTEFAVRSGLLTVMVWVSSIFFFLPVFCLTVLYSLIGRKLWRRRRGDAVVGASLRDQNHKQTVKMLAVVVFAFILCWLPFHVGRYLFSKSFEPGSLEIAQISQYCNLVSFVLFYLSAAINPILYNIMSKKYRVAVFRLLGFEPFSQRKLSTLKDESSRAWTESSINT
Protocol: The complex was purified by gel filtration using Superdex 200 Increase 10/300 GL. […] In the mixture, the protein solution:lipid mass ratio was fixed at 2:3 using the twin-syringe mixing method. Crystallization experiments were carried out in 96-well glass sandwich plates (Molecular Dimensions) on an NT8-LCP crystallization robot (Formulatrix) using a 30 nl protein solution cubic phase overlaid with 600 nl precipitant solution, and incubated at 20 °C. The best crystals were obtained from precipitant solution containing 100 mM MES (pH 6.6–7.0), 400 mM potassium acetate, and 36–40% polyethylene glycol (PEG) 300. The crystals were collected within 2 weeks using mesh grid loops (WAKENBTECH) and flash-cooled in liquid nitrogen. Initial crystals were obtained in hanging drops by vapor diffusion at 20 °C from the precipitant solution containing 100 mM bicine (pH 9.0), 100 mM sodium chloride, and 30% PEG550MME.
All diffraction datasets were collected at SPring-8 BL32XU[42] using a micro-focused X-ray beam. Loop-harvested microcrystals were identified using raster scan and analysis by SHIKA[43]. […] The structure was determined by molecular replacement with the program PHASER[47], using the receptor portions of the antagonist-bound orexin receptor (PDB ID: 4S0V), bRIL (PDB ID: 1M6T), and the Fab 7881 antibody (this study, ID: 6KS2) as the search models. […]

[4] = molecular target: T2, ghrelin receptor WT (Homo sapiens, UniProt Q92847, N188Q); experiment: [3H]-Compound 21 saturation binding, WT; conditions: HEK293 membranes, on ice 1 h, pH7.5; mean ± s.d., three independent experiments
T2 construct: Full-length human ghrelin receptor was used for the mutagenesis; expressed in transfected cells
T2 sequence (Q92847 whole entry N188Q): as the sequence (Q92847 whole entry) above, with N188Q counted along it
Protocol: as §1

[5] = test system: ghrelin receptor E124A; experiment: Intracellular Ca2+ concentration assay, E124A; format: cell-based, human; conditions: Fig. 4c
Protocol: (§2) The positions of mutated amino acids and primers are listed in Supplementary Table 2.
(§3) Transfections were performed using the FuGENE HD transfection reagent (Promega). The next day, the transfected cells were collected and plated into 96-well black-wall assay microplates (Corning) at a density of 3 × 10^4 cells/well. After a 1-day incubation, the cells were incubated for 1 h with 100 μl of calcium indicator Fluo-4 from the FLIPR Calcium 5 Assay Kit (Molecular Devices) in Hank’s BSS containing 20 mM HEPES-NaOH (pH7.5) and 2.5 mM probenecid. Fifty-microliter aliquots of samples were tested to induce changes in fluorescence due to increased calcium concentration on a FlexStation3 (Molecular Devices). Maximum [Ca^2+]i changes were determined in quadruplicate (n = 4).

[6] = test system: ghrelin receptor D99A; experiment: Intracellular Ca2+ concentration assay, D99A; format: cell-based, human; conditions: Fig. 4a
Protocol: as §2, §3

[7] = peripheral injection; ref [3]; cited from earlier work
[8] = test system: ghrelin receptor R102A; experiment: Intracellular Ca2+ concentration assay, R102A; format: cell-based, human; conditions: Fig. 4b
Protocol: as §2, §3

[9] = test system: ghrelin receptor R283A; experiment: Intracellular Ca2+ concentration assay, R283A; format: cell-based, human; conditions: Fig. 4d
Protocol: as §2, §3

[10] = test system: T3, ghrelin receptor F286A; experiment: Intracellular Ca2+ concentration assay, F286A; format: cell-based, human; conditions: Fig. 4f
T3 construct: Full-length human ghrelin receptor was used for the mutagenesis; expressed in transfected cells; host or cells: CHO cells
Protocol: as §2, §3

[11] = test system: ghrelin receptor; conditions: cited from earlier work
Text: No other peptide hormone is known to require such an acyl-modification for its activity.

[12] = test system: bRIL-hGHSR; experiment: Protein thermostability assay (CPM); format: biochemical, human; conditions: Compound 21 present in both samples
Protocol: The thermal stability analysis was performed with the thiol-specific fluorochrome N-[4-(7-diethylamino-4-methyl-3-coumarinyl)phenyl]maleimide (CPM)[40]. CPM at 4 mg ml^−1 in DMSO was diluted 40-fold into buffer containing 20 mM HEPES-NaOH (pH 7.5), 100 mM NaCl, 0.01% LMNG, and 0.001% CHS. Purified protein (20 µg) was mixed with diluted CPM and incubated on ice for 15 min in darkness. The reaction mixture (20 µl) was heated in a controlled manner with a ramp rate of 3 °C min^−1 in a MyiQ2 thermal cycler (Bio-Rad). […] Assays were performed over a temperature range starting from 4 °C and ending at 80 °C. The peak in the derivative of the fluorescence signal was used to determine the melting temperature.

Cc1nc2ccc(Oc3ccc(Br)cc3F)nc2c(=O)n1CC1CCCN(C(C)C)C1 (centres unmarked) [Compound 21]
effect on constitutive activity [1]: no effect on the constitutive activity; also recorded: neutral antagonist | Kd [2]: 17.2 ± 7.1 nM | interaction seen in crystal structure [3]: forms a hydrogen bond with R283^6.55; also recorded: π–cation interaction with R102^2.63; also recorded: forms hydrophobic interactions with the F279^6.51, F309^7.39, and F312^7.42; also recorded: three hydrophobic contacts with residues I178^4.60, L181^4.63, and M213^5.39 | Kd [4]: 4.42 ± 0.76 nM

CCCCCCCC(=O)OC[C@H](NC(=O)[C@H](CO)NC(=O)CN)C(=O)N[C@@H](Cc1ccccc1)C(=O)N[C@@H](CC(C)C)C(=O)N[C@@H](CO)C(=O)N1CCC[C@H]1C(=O)N[C@@H](CCC(=O)O)C(=O)N[C@@H](Cc1c[nH]cn1)C(=O)N[C@@H](CCC(N)=O)C(=O)N[C@@H](CCCNC(=N)N)C(=O)N[C@H](C(=O)N[C@@H](CCC(N)=O)C(=O)N[C@@H](CCC(N)=O)C(=O)N[C@@H](CCCNC(=N)N)C(=O)N[C@@H](CCCCN)C(=O)N[C@@H](CCC(=O)O)C(=O)N[C@@H](CO)C(=O)N[C@@H](CCCCN)C(=O)N[C@@H](CCCCN)C(=O)N1CCC[C@H]1C(=O)N1CCC[C@H]1C(=O)N[C@@H](C)C(=O)N[C@@H](CCCCN)C(=O)N[C@@H](CC(C)C)C(=O)N[C@@H](CCC(N)=O)C(=O)N1CCC[C@H]1C(=O)N[C@@H](CCCNC(=N)N)C(=O)O)C(C)C [Ghrelin]
ghrelin-induced receptor function [5]: completely abolished ghrelin-induced receptor function | receptor activity [6]: abolishes the receptor activity | appetite [7]: induces appetite stimulation following peripheral injection | receptor activity [8]: abolishes the receptor activity | ghrelin-induced receptor function [9]: completely abolished ghrelin-induced receptor function | ghrelin-induced receptor activity [10]: only slightly lower than that of the WT ghrelin receptor

des-acyl ghrelin
activity of ghrelin forms ([11]; ref [2],[5]): inactive

n-octanoyl ghrelin
potency of ghrelin forms ([11]; reference not given): most potent active form

B1: Fab 7881: Fab fragment antibody specific for the ghrelin receptor, binds ICL3 (antibody, V domains shown)
VH: EVQLQQSGAELVRPGASVKLSCKASGYTFTDYEMHWVKQTPVHGLEWIGAIDPETGGTVYNQKFKGKATLTADISSTTAYMELRSLTSEDSAVYFCISEDIDESKDYWGQGTTLTVSS
VL: DIVMTQSPSSLAVSAGEKVTLSCKSSQSLFNSRTRKNYLAWYQQKPGLSPTLLIYWASTRKSGVPDRFTGSGSGTDFTLTITSVQAEDLAVYYCKQSYYLRTFGGGTKLEIK
interaction seen in crystal structure [3]: binds to intracellular loop 3 (ICL3) | increase of Tm [12]: about 5 °C
